Results on five compounds are retold here after US20170008888A1 (KYORIN PHARMACEUTICAL CO., LTD., priority 2014, published 2017).

Like-named read-outs stand apart in the source and are kept apart here.

Holding throughout (assay type): cell-based
The test system of assay [1] is human CD4+ T cells. Kind of assay: Cytokines produced by human CD4+ T cells stimulated with PMA/ionomycin. The note with it: 10 μM compound, PMA/ionomycin 20 h. From the text: Freshly isolated human peripheral blood mononuclear cells (PBMCs) were purchased from Astarte Biologics (Redmond, Wash.). CD4+ T cells were isolated from the PBMCs using the EasySep Negative Selection Human CD4+ T Cell Enrichment Kit (Stemcell Technologies, Vancouver, Canada) according to manufacturer's instructions briefly as follows: Unwanted cells were specifically labeled with a cocktail of bispecific tetrameric antibody complexes (TAC) against dextran and cell surface antigens (CD8, CD14, CD16, CD19, CD20, CD36, CD56, CD66b, CD123, TCRγ/δ, glycophorin A). Labeled cells were then targeted for removal by incubation with dextran-coated magnetic particles, leaving the desired CD4+ T cells.
Human CD4+ T cells, isolated as shown in protocol A, were seeded at 2e6 cells/ml in RPMI 1640 containing 10% (v/v) charcoal-dextran treated, heat inactivated FBS (Omega Scientific, Tarzana, Calif.), 0.05 mM 2-Mercaptoethanol (Sigma-Aldrich, St. Louis, Mo.), and 1×Pen/Strep Amphotericin B (Lonza, Allendale, N.J.). Cells were pre-treated with test compounds (10 μM) for 1 h at 37° C. in a humidified atmosphere at 5% CO2. Cells were then stimulated with 50 ng/ml phorbol 12-myristate 13-acetate (PMA)(Sigma-Aldrich, St. Louis, Mo.)+1 μg/ml ionomycin (Life Technologies, Grand Island, N.Y.) for 20 h at 37° C. in a humidified atmosphere at 5% CO2. Supernatant was collected and analyzed using Bio-Plex Pro Human Th17 Cytokine 15-Plex Panel (Bio-Rad Laboratories, Hercules, Calif.) as per manufacturer's protocols. Magnetic beads were read on the Bio-Plex MAGPIX multiplex reader instrument using the accompanying xPONENT 4.2 acquisition software (Bio-Rad Laboratories, Hercules, Calif.). Data were analyzed via the Bio-Plex Manager software v6.1 (Bio-Rad Laboratories).
IL-1β, IL-2, IL-7, and IL-12 (p70) were below the limit of detection under conditions used. The concentrations of the observed analytes of the DMSO control, from top to bottom as listed, are as follows: 31, 585, 24178, 22, 48, 91, 728, 94, 156, 705, 15, 1045, 5501 pg/ml.

Assay [2] deals with immortalized normal human bronchial epithelial BEAS-2B cells. The assay is described as follows: IL-17A- or IL-17F-mediated cytokine response by BEAS-2B cells. The following applies: 48 h. The protocol: The virally immortalized, normal human bronchial epithelial cell line BEAS-2B was purchased from ATCC (Manassas, Va.). Primary bronchial epithelial cells isolated from a patient diagnosed with asthma were obtained from Lonza (Allendale, N.J.). Both cells were maintained in complete Bronchial Epithelial Cell Growth Medium (BEGM) (Lonza). Cells were seeded at 1e5 cells/ml and incubated at 37° C. in a humidified atmosphere at 5% CO2 overnight to adhere. Cells were pre-treated with test compounds (10 μM down by ⅕ in a 3- or 4-point serial dilution series) for 1 h at 37° C. in a humidified atmosphere at 5% CO2. DMSO at a final concentration of 0.1% served as the non-inhibited control. Budesonide (Selleck Chemicals, Houston, Tex.), a clinically approved glucocorticoid steroid for the treatment of asthma, was tested as a positive control at 0.25 μM. Cells were stimulated with 50 ng/ml of either human recombinant IL-17A or IL-17F (eBioscience, San Diego, Calif.), for 48 h. Supernatant was then collected and analyzed for cytokine concentrations using the Bio-Plex Pro Human Cytokine 17-Plex Panel (Bio-Rad Laboratories, Hercules, Calif.) according to the manufacturer's instructions. Magnetic beads were measured on the Bio-Plex MAGPIX multiplex reader instrument using the accompanying xPONENT 4.2 acquisition software (Bio-Rad Laboratories). Data were analyzed via the Bio-Plex Manager software v6.1 (Bio-Rad Laboratories). For the primary asthmatic bronchial epithelial cells, five (+IL-17F) to thirteen (+IL-17A) cytokines were in range of detection under the conditions used. […] Select cytokines were analyzed for comparison using the BEAS-2B cell line.

Assay [3] deals with diseased primary human lung fibroblasts. Kind of assay: Cytokine response by primary diseased human lung fibroblasts stimulated with IL-17A or IL-17F. The note with it: Fibroblast, 48 h. The protocol:
Primary lung fibroblasts isolated from a patient diagnosed with asthma were obtained from Lonza (Allendale, N.J.) and maintained in FGM-2 fibroblast growth medium (Lonza). Cells were seeded at 1e5 cells/ml and incubated at 37° C. in a humidified atmosphere at 5% CO2 overnight to adhere. Cells were pre-treated with test compounds (10 μM down by ⅕ in a 3- or 4-point serial dilution series) for 1 h at 37° C. in a humidified atmosphere at 5% CO2. DMSO at a final concentration of 0.1% served as the non-inhibited control. Cells were stimulated with 50 ng/ml of either human recombinant IL-17A or IL-17F (eBioscience, San Diego, Calif.), for 48 h. Supernatant was then collected and analyzed for cytokine concentrations using the Bio-Plex Pro Human Cytokine 17-Plex Panel (Bio-Rad Laboratories, Hercules, Calif.) according to the manufacturer's instructions. Magnetic beads were measured on the Bio-Plex MAGPIX multiplex reader instrument using the accompanying xPONENT 4.2 acquisition software (Bio-Rad Laboratories). Data were analyzed via the Bio-Plex Manager software v6.1 (Bio-Rad Laboratories). Only four (+IL-17F) to six (+IL-17A) cytokines were in range of detection under the conditions used.
G-CSF concentrations were below the limit of detection when cells were stimulated with IL-17F.

[4] abbreviates: read-out: Percent inhibition of G-CSF (relative to DMSO control).
Where [5] appears, read: read-out: Percent inhibition of GM-CSF (relative to DMSO control).
Setting [6] is: read-out: Percent inhibition of IFNγ (relative to DMSO control).
[7] abbreviates: read-out: Percent inhibition of IL-4 (relative to DMSO control).
Setting [8] is: read-out: Percent inhibition of IL-5 (relative to DMSO control).
Where [9] appears, read: read-out: Percent inhibition of IL-6 (relative to DMSO control).
Setting [10] is: read-out: Percent inhibition of IL-8 (relative to DMSO control).
The mark [11] stands for this setting: read-out: Percent inhibition of IL-10 (relative to DMSO control).
Setting [12] is: read-out: Percent inhibition of IL-13 (relative to DMSO control).
Where [13] appears, read: read-out: Percent inhibition of IL-17A (relative to DMSO control).
[14] abbreviates: read-out: Percent inhibition of MCP-1 (relative to DMSO control).
Where [15] appears, read: read-out: Percent inhibition of MIP-1β (relative to DMSO control).
Where [16] appears, read: read-out: Percent inhibition of TNFα (relative to DMSO control).
The mark [17] stands for this setting: +50 ng/ml IL-17A, read-out: EC50 values (μM), IL-6.
[18] abbreviates: +50 ng/ml IL-17A, read-out: EC50 values (μM), IL-8.
Setting [19] is: +50 ng/ml IL-17F, read-out: EC50 values (μM), IL-6.
Setting [20] is: +50 ng/ml IL-17F, read-out: EC50 values (μM), IL-8.
The mark [21] stands for this setting: +50 ng/ml IL-17A, read-out: EC50 values (μM), G-CSF.
[22] abbreviates: +50 ng/ml IL-17A, read-out: EC50 values (μM), MCP-1.
Setting [23] is: +50 ng/ml IL-17F, read-out: EC50 values (μM), MCP-1.

Take `CCOc1cc(C(=O)N2CCC(N3CCCC3)CC2)ccc1Nc1cc2c(cn1)N(C)C(=O)c1ccccc1N2C` [Compound 46, 3-(2-Ethoxy-4-(4-(pyrrolidin-1-yl)piperidine-1-carbonyl)phenylamino)-5,11-dimethyl-5H-benzo[e]pyrido[3,4-b][1,4]diazepin-10(11H)-one]: the inhibition at 10 µM in assay [1] (setting [4]) amounted to 26.4%; in assay [1] (setting [5]), 96.7%; in assay [1] (setting [6]), 18.3%; in assay [1] (setting [7]), 11.7%; in assay [1] (setting [8]) it was 49.1%; in assay [1] (setting [9]), 89.3%. The inhibition at 10 µM in assay [1] (setting [10]) was -109%; in assay [1] (setting [11]) it was 97.3%; in assay [1] (setting [12]), 32.1%; in assay [1] (setting [13]), 52.2%; in assay [1] (setting [14]) it was 67.6%; in assay [1] (setting [15]), 63.9%. For the same compound, the inhibition at 10 µM in assay [1] (setting [16]) was 64%. The EC50 in assay [2] (setting [17]) was 0.51 µM; in assay [2] (setting [18]), 0.4 µM; in assay [2] (setting [19]), 0.38 µM; in assay [2] (setting [20]), 0.32 µM.

For `CCOc1cc(C(=O)NCC2CC2)ccc1Nc1cc2c(cn1)N(C)C(=O)c1ccccc1N2C` [Compound 57], the inhibition at 10 µM stood at 34.5% in assay [1] (setting [4]); 95.9% in assay [1] (setting [5]); 50.9% in assay [1] (setting [6]); 31.4% in assay [1] (setting [7]); 42.8% in assay [1] (setting [8]); 91.1% in assay [1] (setting [9]). Besides, the inhibition at 10 µM in assay [1] (setting [10]) was -44.1%; in assay [1] (setting [11]), 97.7%; in assay [1] (setting [12]) it was 55.6%; in assay [1] (setting [13]), 78.8%; in assay [1] (setting [14]), 70.6%; in assay [1] (setting [15]), 56.2%. For the same compound, the inhibition at 10 µM in assay [1] (setting [16]) worked out at 58.3%.

With `CCOc1cc(C(=O)N2CCNCC2)ccc1Nc1cc2c(cn1)N(C)C(=O)c1ccccc1N2C` [Compound 62], the inhibition at 10 µM in assay [1] (setting [4]) is 27.6%; in assay [1] (setting [5]), 95.4%; in assay [1] (setting [6]), 15.6%; in assay [1] (setting [7]), -4.8%; in assay [1] (setting [8]), 29.7%; in assay [1] (setting [9]) it was 86.9%. Also, the inhibition at 10 µM is -179% in assay [1] (setting [10]); 97.2% in assay [1] (setting [11]); 19.8% in assay [1] (setting [12]); 49.7% in assay [1] (setting [13]); 66.1% in assay [1] (setting [14]); 66.9% in assay [1] (setting [15]). For the same compound, in assay [1] (setting [16]), the inhibition at 10 µM is 70.1%.

Consider `CCOc1cc(C(=O)N2CCC(N3CCN(C)CC3)CC2)ccc1Nc1cc2c(cn1)N(C)C(=O)c1occc1N2C` [Compound 65], for which the inhibition at 10 µM in assay [1] (setting [4]) worked out at 36.1%; in assay [1] (setting [5]) it was 89.5%; in assay [1] (setting [6]), 12.3%; in assay [1] (setting [7]), 10.1%; in assay [1] (setting [8]), 47.7%; in assay [1] (setting [9]), 87.7%. The inhibition at 10 µM was found to be 98% in assay [1] (setting [11]); 18.3% in assay [1] (setting [12]); 39.3% in assay [1] (setting [13]); 64.2% in assay [1] (setting [14]); 55.8% in assay [1] (setting [15]); 56.9% in assay [1] (setting [16]). Moreover, the EC50 in assay [3] (setting [21]) turned out to be 3.5 µM; in assay [3] (setting [17]), 5.69 µM; in assay [3] (setting [18]), 0.48 µM; in assay [3] (setting [22]), 1.31 µM; in assay [3] (setting [19]) it was 2.49 µM; in assay [3] (setting [20]), 0.52 µM. Moreover, the EC50 in assay [3] (setting [23]) was 1.85 µM.

For `CCOc1cc(C(=O)N2CC[C@@H](N(C)C)C2)ccc1Nc1cc2c(cn1)N(C)C(=O)c1ccccc1N2C` [Compound 115], the EC50 in assay [2] (setting [17]) worked out at 0.21 µM; in assay [2] (setting [18]), 0.42 µM; in assay [2] (setting [19]), 0.14 µM; in assay [2] (setting [20]), 0.13 µM; in assay [3] (setting [21]) it was 0.86 µM; in assay [3] (setting [17]), 1.16 µM. Further, the EC50 is less than 0.08 µM in assay [3] (setting [18]); 0.35 µM in assay [3] (setting [22]); 0.95 µM in assay [3] (setting [19]); less than 0.08 µM in assay [3] (setting [20]); 0.36 µM in assay [3] (setting [23]).
